From ChEMBL document CHEMBL6134889, “ByeTAC: Bypassing E-Ligase-Targeting Chimeras for Direct Proteasome Degradation” (J Med Chem, 2025)
Calls of active or inactive are those of the source. The rule behind the calls is not given here.

Tests used:
Ramos = experiment: Antiproliferative activity against human Ramos cells assessed as reduction in cell viability incubated for 48 hrs; assay type: functional, cell-based
[1] = target: T1, Proteasomal ubiquitin receptor ADRM1/Bromodomain-containing protein 4 (Homo sapiens, UniProt O60885+Q16186); experiment: BYETAC activity at 26S proteasome subunit Rpn13/BRD4 in human Ramos cells assessed as induction of BRD4 degradation at 100 nM incubated for 18 hrs in presence of MG132 by Western blot analysis; assay type: cell-based
[2] = target: T1, Proteasomal ubiquitin receptor ADRM1/Bromodomain-containing protein 4; experiment: Binding affinity to 26S proteasome subunit Rpn13/BRD4 in human Ramos cells assessed as ternary complex formation at 5 uM incubated for 3 hrs by co-immunoprecipitation analysis; assay type: cell-based
[3] = target: T1, Proteasomal ubiquitin receptor ADRM1/Bromodomain-containing protein 4; experiment: BYETAC activity at 26S proteasome subunit Rpn13/BRD4 in human U87 cells assessed as induction of BRD4 degradation by measuring remaining activity at 10 nM incubated for 18 hrs by Western blot analysis (reference value: 100 %); assay type: cell-based
[4] = target: T1, Proteasomal ubiquitin receptor ADRM1/Bromodomain-containing protein 4; experiment: BYETAC activity at 26S proteasome subunit Rpn13/BRD4 in human Ramos cells assessed as induction of BRD4 degradation at 500 nM preincubated with TCL1 for 1 hrs followed by compound addition and measured after 18 hrs by competitive Western blot analysis; assay type: cell-based
[5] = target: T1, Proteasomal ubiquitin receptor ADRM1/Bromodomain-containing protein 4; experiment: BYETAC activity at 26S proteasome subunit Rpn13/BRD4 in human U87 cells assessed as induction of BRD4 degradation by measuring remaining activity at 100 nM incubated for 18 hrs by Western blot analysis (reference value: 100 %); assay type: cell-based
[6] = target: T1, Proteasomal ubiquitin receptor ADRM1/Bromodomain-containing protein 4; experiment: BYETAC activity at 26S proteasome subunit Rpn13/BRD4 in human Raji cells assessed as induction of BRD4 degradation by measuring remaining activity at 100 nM incubated for 18 hrs by Western blot analysis (reference value: 100 %); assay type: cell-based
[7] = target: Proteasomal ubiquitin receptor ADRM1/Bromodomain-containing protein 2 (Homo sapiens) (UniProt P25440+Q16186); experiment: BYETAC activity at 26S proteasome subunit Rpn13/BRD2 in human Ramos cells assessed as induction of BRD2 degradation at 100 nM incubated for 18 hrs by Western blot analysis; assay type: cell-based
[8] = target: T1, Proteasomal ubiquitin receptor ADRM1/Bromodomain-containing protein 4; experiment: BYETAC activity at 26S proteasome subunit Rpn13/BRD4 in human Raji cells assessed as induction of BRD4 degradation by measuring remaining activity at 10 nM incubated for 18 hrs by Western blot analysis (reference value: 100 %); assay type: cell-based
[9] = target: T1, Proteasomal ubiquitin receptor ADRM1/Bromodomain-containing protein 4; experiment: BYETAC activity at 26S proteasome subunit Rpn13/BRD4 in human Ramos cells assessed as induction of BRD4 degradation by measuring remaining activity at 10 nM incubated for 18 hrs by Western blot analysis (reference value: 100 %); assay type: cell-based
[10] = target: T1, Proteasomal ubiquitin receptor ADRM1/Bromodomain-containing protein 4; experiment: BYETAC activity at 26S proteasome subunit Rpn13/BRD4 in human U87 cells assessed as induction of BRD4 degradation by measuring remaining activity at 500 nM incubated for 18 hrs by Western blot analysis (reference value: 100 %); assay type: cell-based
[11] = target: T1, Proteasomal ubiquitin receptor ADRM1/Bromodomain-containing protein 4; experiment: BYETAC activity at 26S proteasome subunit Rpn13/BRD4 in human Ramos cells assessed as induction of BRD4 degradation incubated for 18 hrs by Western blot analysis; assay type: cell-based
[12] = target: T1, Proteasomal ubiquitin receptor ADRM1/Bromodomain-containing protein 4; experiment: BYETAC activity at 26S proteasome subunit Rpn13/BRD4 in human Ramos cells assessed as induction of BRD4 degradation by measuring remaining activity at 100 nM incubated for 18 hrs by Western blot analysis (reference value: 100 %); assay type: cell-based
[13] = target: T1, Proteasomal ubiquitin receptor ADRM1/Bromodomain-containing protein 4; experiment: BYETAC activity at 26S proteasome subunit Rpn13/BRD4 in human Raji cells assessed as induction of BRD4 degradation by measuring remaining activity at 500 nM incubated for 18 hrs by Western blot analysis (reference value: 100 %); assay type: cell-based
[14] = target: T1, Proteasomal ubiquitin receptor ADRM1/Bromodomain-containing protein 4; experiment: BYETAC activity at 26S proteasome subunit Rpn13/BRD4 in human Ramos cells assessed as induction of BRD4 degradation at 500 nM preincubated with JQ1 for 1 hrs followed by compound addition and measured after 18 hrs by competitive Western blot analysis; assay type: cell-based
[15] = target: Proteasomal ubiquitin receptor ADRM1/Bromodomain-containing protein 3 (Homo sapiens) (UniProt Q15059+Q16186); experiment: BYETAC activity at 26S proteasome subunit Rpn13/BRD3 in human Ramos cells assessed as induction of BRD3 degradation at 100 nM incubated for 18 hrs by Western blot analysis; assay type: cell-based
[16] = target: Proteasomal ubiquitin receptor ADRM1 (Homo sapiens) (UniProt Q16186); experiment: Induction of Rpn-13 stabilization in human Ramos cells assessed as increase in Rpn-13 level at 5 uM incubated for 3 hrs by co-immunoprecipitation analysis; assay type: cell-based
[17] = target: T1, Proteasomal ubiquitin receptor ADRM1/Bromodomain-containing protein 4; experiment: BYETAC activity at 26S proteasome subunit Rpn13/BRD4 in human Ramos cells assessed as induction of BRD4 degradation by measuring remaining activity at 500 nM incubated for 18 hrs by Western blot analysis (reference value: 100 %); assay type: cell-based
[18] = target: T1, Proteasomal ubiquitin receptor ADRM1/Bromodomain-containing protein 4; experiment: BYETAC activity at 26S proteasome subunit Rpn13/BRD4 in human Ramos cells assessed as induction of BRD4 degradation by measuring remaining activity at 100 nM incubated for 18 hrs in presence of TAK-243 by Western blot analysis relative to control; assay type: cell-based
[19] = target: T1, Proteasomal ubiquitin receptor ADRM1/Bromodomain-containing protein 4; experiment: Induction of BRD4 degradation in human U87 cells transfected with Rpn-13 siRNA at 100 nM incubated for 18 hrs by Western blot analysis; assay type: cell-based
[20] = target: T1, Proteasomal ubiquitin receptor ADRM1/Bromodomain-containing protein 4; experiment: BYETAC activity at 26S proteasome subunit Rpn13/BRD4 in human U87 cells assessed as induction of BRD4 degradation at 500 nM measured up to 72 hrs by Western blot analysis; assay type: cell-based
[21] = target: T1, Proteasomal ubiquitin receptor ADRM1/Bromodomain-containing protein 4; experiment: Induction of BRD4 degradation in human Ramos cells at 10 to 1000 nM incubated for 18 hrs by Western blot analysis; assay type: cell-based; details: dose 10-1000 nM
[22] = target: T2, Proteasomal ubiquitin receptor ADRM1/Tyrosine-protein kinase BTK (Homo sapiens) (UniProt Q06187+Q16186); experiment: BYETAC activity at 26S proteasome subunit Rpn13/BTK in human Ramos cells assessed as induction of BTK degradation by measuring remaining activity at 0.5 uM incubated for 18 hrs by Western blot analysis (reference value: 100 %); assay type: cell-based
[23] = target: T2, Proteasomal ubiquitin receptor ADRM1/Tyrosine-protein kinase BTK (Homo sapiens); experiment: BYETAC activity at 26S proteasome subunit Rpn13/BTK in human Ramos cells assessed as induction of BTK degradation by measuring remaining activity at 25 uM incubated for 18 hrs by Western blot analysis (reference value: 100 %); assay type: cell-based
[24] = target: T2, Proteasomal ubiquitin receptor ADRM1/Tyrosine-protein kinase BTK (Homo sapiens); experiment: BYETAC activity at 26S proteasome subunit Rpn13/BTK in human Ramos cells assessed as induction of BTK degradation by measuring remaining activity at 1 uM incubated for 18 hrs by Western blot analysis (reference value: 100 %); assay type: cell-based
[25] = target: T2, Proteasomal ubiquitin receptor ADRM1/Tyrosine-protein kinase BTK (Homo sapiens); experiment: BYETAC activity at 26S proteasome subunit Rpn13/BTK in human Ramos cells assessed as induction of BTK degradation by measuring remaining activity at 10 uM incubated for 18 hrs by Western blot analysis (reference value: 100 %); assay type: cell-based
[26] = target: T2, Proteasomal ubiquitin receptor ADRM1/Tyrosine-protein kinase BTK (Homo sapiens); experiment: BYETAC activity at 26S proteasome subunit Rpn13/BTK in human Ramos cells assessed as induction of BTK degradation at 1 to 25 uM incubated for 18 hrs by Western blot analysis; assay type: cell-based; details: dose 1-25 µM
[27] = target: Proteasomal ubiquitin receptor ADRM1/Glycogen synthase kinase-3 beta (Homo sapiens) (UniProt P49841+Q16186); experiment: Halo-BYETAC activity at 26S proteasome subunit Rpn13/Halo-tagged GSK3beta (unknown origin) transfected in human U87 cells assessed as induction of Halo-tagged GSK3beta degradation at 1 to 10 uM incubated for 18 hrs by Western blot analysis; assay type: cell-based; details: dose 1-10 µM

## Cc1sc2c(c1C)C(c1ccc(Cl)cc1)=N[C@@H](CC(=O)Nc1ccc(OCCOCCOCCOCCNc3cccc4c3C(=O)N(C3CCC(=O)NC3=O)C4=O)cc1)c1nnc(C)n1-2 (stereo not given in full)
Ramos
  IC50: 1.9 nM

## Cc1sc2c(c1C)C(c1ccc(Cl)cc1)=N[C@@H](CC(=O)NCCOCCOCCOCCOCCNC(=O)CC1Sc3nnc(Cc4ccc(Br)cc4)n3N=C1c1ccc(Cl)cc1)c1nnc(C)n1-2 (stereo not given in full)
[1]
  Activity: inactive
Ramos
  IC50: 30.5 nM
[2]
  Activity: Active
[3]
  Activity: 66%
[4]
  Activity: inactive
[5]
  Activity: 36%
[6]
  Activity: 72%
[7]
  Activity: Active
[8]
  Activity: 95%
[9]
  Activity: 91%
[10]
  Activity: 20%
[11]
  DC50: ~500 nM
[12]
  Activity: 55%
[13]
  Activity: 62%
[14]
  Activity: inactive
[15]
  Activity: Active
[16]
  Activity: Active
[17]
  Activity: 33%
[18]
  Activity: 40%
[19]
  Activity: inactive
[20]
  Activity: Active

## O=C(O)CC1Sc2nnc(Cc3ccc(Br)cc3)n2N=C1c1ccc(Cl)cc1 (stereo not given)
[21]
  Activity: inactive

## Nc1ncnc2c1c(-c1ccc(Oc3ccccc3)cc1)nn2[C@H]1CCCN(C(=O)CCC(=O)NCCOCCOCCOCCOCCOCCOCCOCCOCCNC(=O)CC2Sc3nnc(Cc4ccc(Br)cc4)n3N=C2c2ccc(Cl)cc2)C1 (stereo not given in full)
[22]
  Activity: 97%
[23]
  Activity: 6%
[24]
  Activity: 72%
[25]
  Activity: 3%

## Cc1sc2c(c1C)C(c1ccc(Cl)cc1)=N[C@@H](CC(=O)NCCOCCOCCOCCOCCOCCOCCOCCNC(=O)CC1Sc3nnc(Cc4ccc(Br)cc4)n3N=C1c1ccc(Cl)cc1)c1nnc(C)n1-2 (stereo not given in full)
[9]
  Activity: 107%
[12]
  Activity: 100%
[17]
  Activity: 80%

## Cc1sc2c(c1C)C(c1ccc(Cl)cc1)=N[C@@H](CC(=O)NCCOCCOCCOCCOCCOCCNC(=O)CC1Sc3nnc(Cc4ccc(Br)cc4)n3N=C1c1ccc(Cl)cc1)c1nnc(C)n1-2 (stereo not given in full)
[9]
  Activity: 92%
[12]
  Activity: 87%
[17]
  Activity: 60%

## Nc1ncnc2c1c(-c1ccc(Oc3ccccc3)cc1)nn2[C@H]1CCCN(C(=O)COCCOCCOCCOCCNC(=O)CC2Sc3nnc(Cc4ccc(Br)cc4)n3N=C2c2ccc(Cl)cc2)C1 (stereo not given in full)
[26]
  Activity: inactive

## ClCCCCCCNCCOCCOCCNCC1Sc2nnc(Cc3ccc(Br)cc3)n2N=C1c1ccc(Cl)cc1 (stereo not given)
[27]
  Activity: Active

## Cc1sc2c(c1C)C(c1ccc(Cl)cc1)=N[C@@H](CC(=O)NCCOCCOCCOCCNC(=O)CC1Sc3nnc(Cc4ccc(Br)cc4)n3N=C1c1ccc(Cl)cc1)c1nnc(C)n1-2 (stereo not given in full)
[3]
  Activity: 83%
[5]
  Activity: 53%
[6]
  Activity: 77%
[8]
  Activity: 78%
[9]
  Activity: 111%
[10]
  Activity: 36%
[11]
  DC50: ~500 nM
[12]
  Activity: 69%
[13]
  Activity: 68%
[17]
  Activity: 35%
